Measured values: ChEMBL document CHEMBL3431459, “Roche carnitine palmitoyltransferase modulator screening data (supplementary data associated with the publication CHEMBL2216752)”

Assays:
[1] = target: T1, Carnitine O-palmitoyltransferase 1, liver isoform (Rattus norvegicus, UniProt P32198); assay: (§1) SUPPLEMENTARY: Inhibition of Carnitine palmitoyltransferase 1, liver isoform
T1 sequence (P32198 whole entry): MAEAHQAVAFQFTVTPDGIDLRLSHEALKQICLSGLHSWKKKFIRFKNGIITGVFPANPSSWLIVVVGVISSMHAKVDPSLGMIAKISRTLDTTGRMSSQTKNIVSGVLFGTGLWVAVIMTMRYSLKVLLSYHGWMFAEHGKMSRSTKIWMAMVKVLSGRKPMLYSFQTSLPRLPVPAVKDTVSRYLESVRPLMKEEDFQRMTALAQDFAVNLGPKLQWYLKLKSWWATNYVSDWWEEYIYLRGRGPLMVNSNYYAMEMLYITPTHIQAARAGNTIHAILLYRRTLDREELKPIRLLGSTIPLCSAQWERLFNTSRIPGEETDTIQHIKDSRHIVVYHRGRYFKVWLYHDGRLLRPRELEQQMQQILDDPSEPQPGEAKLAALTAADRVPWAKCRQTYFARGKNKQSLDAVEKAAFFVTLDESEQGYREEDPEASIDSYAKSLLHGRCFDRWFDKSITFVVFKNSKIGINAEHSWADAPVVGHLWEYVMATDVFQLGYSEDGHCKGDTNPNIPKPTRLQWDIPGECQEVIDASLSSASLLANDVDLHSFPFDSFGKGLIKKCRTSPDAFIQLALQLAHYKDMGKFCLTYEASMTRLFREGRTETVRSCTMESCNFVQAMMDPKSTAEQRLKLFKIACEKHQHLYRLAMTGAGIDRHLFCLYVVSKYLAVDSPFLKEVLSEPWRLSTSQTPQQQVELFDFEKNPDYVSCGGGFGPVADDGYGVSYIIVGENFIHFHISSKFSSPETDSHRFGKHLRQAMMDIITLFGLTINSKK

[2] = target: T2, Carnitine O-palmitoyltransferase 2, mitochondrial (Homo sapiens, UniProt P23786); assay: (§2) SUPPLEMENTARY: Inhibition of Carnitine palmitoyltransferase 2
T2 sequence (P23786 whole entry): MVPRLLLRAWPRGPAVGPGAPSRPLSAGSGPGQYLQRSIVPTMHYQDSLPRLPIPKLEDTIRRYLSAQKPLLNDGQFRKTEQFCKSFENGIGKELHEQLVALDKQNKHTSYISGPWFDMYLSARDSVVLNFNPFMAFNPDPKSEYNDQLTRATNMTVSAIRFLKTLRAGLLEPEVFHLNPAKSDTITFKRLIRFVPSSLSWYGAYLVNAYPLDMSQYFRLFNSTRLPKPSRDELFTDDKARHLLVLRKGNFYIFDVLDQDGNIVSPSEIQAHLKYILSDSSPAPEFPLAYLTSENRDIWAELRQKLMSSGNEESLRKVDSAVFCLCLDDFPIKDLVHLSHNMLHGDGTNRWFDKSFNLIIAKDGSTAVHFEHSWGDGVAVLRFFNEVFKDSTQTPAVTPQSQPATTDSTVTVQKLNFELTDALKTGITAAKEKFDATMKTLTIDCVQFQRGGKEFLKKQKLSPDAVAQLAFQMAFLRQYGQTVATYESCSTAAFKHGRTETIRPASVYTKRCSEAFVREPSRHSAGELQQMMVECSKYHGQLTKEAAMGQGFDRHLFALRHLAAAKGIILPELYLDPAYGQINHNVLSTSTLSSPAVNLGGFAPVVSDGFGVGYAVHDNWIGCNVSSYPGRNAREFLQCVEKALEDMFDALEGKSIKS

[3] = target: T3, Carnitine O-palmitoyltransferase 1, liver isoform (Homo sapiens, UniProt P50416); assay: as §1
T3 sequence (P50416 whole entry): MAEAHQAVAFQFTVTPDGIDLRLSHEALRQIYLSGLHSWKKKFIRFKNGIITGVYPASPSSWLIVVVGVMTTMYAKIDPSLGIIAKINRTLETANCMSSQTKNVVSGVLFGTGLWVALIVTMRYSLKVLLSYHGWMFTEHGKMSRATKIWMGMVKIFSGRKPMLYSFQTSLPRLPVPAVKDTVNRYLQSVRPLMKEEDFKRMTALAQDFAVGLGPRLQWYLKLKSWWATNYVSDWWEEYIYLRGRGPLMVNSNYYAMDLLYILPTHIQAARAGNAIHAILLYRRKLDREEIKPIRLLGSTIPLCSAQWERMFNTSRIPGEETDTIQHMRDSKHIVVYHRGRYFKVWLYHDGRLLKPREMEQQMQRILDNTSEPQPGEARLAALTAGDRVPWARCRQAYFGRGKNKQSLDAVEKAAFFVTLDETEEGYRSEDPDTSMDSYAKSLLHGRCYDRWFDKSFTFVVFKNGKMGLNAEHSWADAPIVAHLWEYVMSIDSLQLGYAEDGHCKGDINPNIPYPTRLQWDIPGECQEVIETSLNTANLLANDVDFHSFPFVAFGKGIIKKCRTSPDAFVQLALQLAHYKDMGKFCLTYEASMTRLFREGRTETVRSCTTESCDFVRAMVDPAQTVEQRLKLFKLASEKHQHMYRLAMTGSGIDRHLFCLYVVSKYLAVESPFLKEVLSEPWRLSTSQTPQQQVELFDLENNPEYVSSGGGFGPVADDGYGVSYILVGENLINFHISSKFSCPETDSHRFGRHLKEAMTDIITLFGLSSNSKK

[4] = target: T4, Carnitine O-palmitoyltransferase 1, muscle isoform (Homo sapiens, UniProt Q92523); assay: SUPPLEMENTARY: Inhibition of Carnitine palmitoyltransferase 1, muscle isoform; design: species or system Muscle tissue
T4 sequence (Q92523 whole entry): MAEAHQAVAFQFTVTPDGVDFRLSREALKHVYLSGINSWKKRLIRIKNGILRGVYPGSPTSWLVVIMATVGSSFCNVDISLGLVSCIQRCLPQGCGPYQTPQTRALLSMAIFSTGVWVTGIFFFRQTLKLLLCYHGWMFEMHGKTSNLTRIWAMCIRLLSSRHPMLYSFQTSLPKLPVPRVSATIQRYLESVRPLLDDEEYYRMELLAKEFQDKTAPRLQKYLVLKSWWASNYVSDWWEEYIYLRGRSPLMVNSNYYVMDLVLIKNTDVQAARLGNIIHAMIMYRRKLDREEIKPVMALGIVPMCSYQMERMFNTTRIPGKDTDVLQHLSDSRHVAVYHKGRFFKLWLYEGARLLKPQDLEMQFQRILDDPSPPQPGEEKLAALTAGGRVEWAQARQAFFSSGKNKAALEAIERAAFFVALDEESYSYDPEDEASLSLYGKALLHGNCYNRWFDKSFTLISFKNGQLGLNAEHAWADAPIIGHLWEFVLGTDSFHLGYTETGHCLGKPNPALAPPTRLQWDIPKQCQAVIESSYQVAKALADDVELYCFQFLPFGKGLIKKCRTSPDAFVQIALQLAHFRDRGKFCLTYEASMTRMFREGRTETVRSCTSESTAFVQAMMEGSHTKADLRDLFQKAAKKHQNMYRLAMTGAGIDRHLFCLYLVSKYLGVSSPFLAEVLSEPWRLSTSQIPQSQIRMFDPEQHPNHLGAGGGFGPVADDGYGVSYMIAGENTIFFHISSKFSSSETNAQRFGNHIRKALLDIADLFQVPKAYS

[5] = target: T5, Carnitine O-palmitoyltransferase 2, mitochondrial (Rattus norvegicus, UniProt P18886); assay: as §2
T5 sequence (P18886 whole entry): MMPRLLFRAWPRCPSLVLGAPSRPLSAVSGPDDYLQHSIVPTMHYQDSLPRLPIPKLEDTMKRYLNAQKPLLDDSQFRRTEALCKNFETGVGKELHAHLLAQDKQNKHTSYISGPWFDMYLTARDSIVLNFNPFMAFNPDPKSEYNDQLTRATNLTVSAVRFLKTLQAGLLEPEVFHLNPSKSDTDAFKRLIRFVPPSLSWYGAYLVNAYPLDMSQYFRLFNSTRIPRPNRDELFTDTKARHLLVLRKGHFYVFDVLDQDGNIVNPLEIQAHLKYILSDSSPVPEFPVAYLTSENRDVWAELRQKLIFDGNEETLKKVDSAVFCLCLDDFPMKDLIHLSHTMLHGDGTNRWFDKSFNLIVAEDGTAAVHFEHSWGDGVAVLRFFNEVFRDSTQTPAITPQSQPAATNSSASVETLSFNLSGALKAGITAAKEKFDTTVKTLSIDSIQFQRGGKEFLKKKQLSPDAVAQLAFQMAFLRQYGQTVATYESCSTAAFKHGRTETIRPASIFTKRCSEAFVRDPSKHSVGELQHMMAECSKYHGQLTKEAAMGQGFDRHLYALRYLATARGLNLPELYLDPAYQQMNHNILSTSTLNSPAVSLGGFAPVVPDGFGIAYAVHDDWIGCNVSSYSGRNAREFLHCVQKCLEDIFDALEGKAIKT

Row | SMILES | IC50 [1] [nM] | IC50 [2] [µM] | IC50 [3] [nM] | IC50 [4] [µM] | IC50 [5] [µM]
1 | COc1ccc(C)cc1S(=O)(=O)N1CCCc2ccc(C(=O)Nc3ccc(CC(=O)O)cc3)cc21 | 186 | – | – | – | –
2 | O=C(COc1ccccc1)N1CCCCC1c1ncc(-c2cccc([N+](=O)[O-])c2)s1 (configuration not stated) | 958 | > 100 | 206 | > 100 | –
3 | O=C(COc1ccccc1)N1CCCC[C@@H]1c1nc(-c2ccc(O)cc2)no1 | 124 | 75.5 | 73.2 | 39.2 | –
4 | O=C([C@H]1CCCCN1C(=O)COc1ccccc1)N1CCc2ccc([N+](=O)[O-])cc2C1 | – | 1.62 | 648 | > 100 | 2.85
5 | CC(=O)Nc1ccc(-c2csc([C@H]3CCCCN3C(=O)COc3ccccc3)n2)cc1 | 120 | 3.68 | – | > 100 | > 100
6 | N#Cc1cccc(-c2csc([C@H]3CCCCN3C(=O)COc3ccccc3)n2)c1 | 128 | 6.55 | – | 8.1 | 68.1
7 | O=C(COc1ccccc1)N1CCCC[C@@H]1c1nc(-c2ccc(Br)s2)cs1 | 1360 | 47.9 | – | 5.66 | > 100
8 | O=C(O)c1cccc(-c2csc([C@H]3CCCCN3C(=O)COc3ccccc3)n2)n1 | 301 | 81.3 | – | 19.5 | 99.1
9 | O=C(COc1ccccc1)N1CCCC[C@@H]1c1csc(-c2cccnc2)n1 | 62.7 | > 100 | – | 4.16 | 52.2
10 | O=C(COc1ccccc1)N1CCCC[C@@H]1c1csc(C2COc3ccccc3O2)n1 (some centres not stated) | 3620 | > 100 | – | > 100 | > 100
11 | COC(=O)c1ccc(-c2nc([C@H]3CCCCN3C(=O)COc3ccccc3)cs2)cc1 | 1210 | > 100 | – | > 100 | > 100
12 | O=C(O)c1ccc(-c2nc([C@H]3CCCCN3C(=O)COc3ccccc3)cs2)cc1 | 2230 | 5.1 | – | > 100 | > 100

The remaining lines, values ahead:

Row | IC50 [1] [nM] | IC50 [2] [µM] | IC50 [3] [nM] | IC50 [4] [µM] | IC50 [5] [µM] | SMILES
13 | 1580 | > 100 | 281 | > 100 | – | O=C(COc1ccccc1)N1CCCCC1c1cc(=O)n(-c2ccc(F)cc2)[nH]1 (configuration not stated)
14 | 574 | 19.4 | 273 | > 100 | – | O=C1CN(NC(=O)c2cccc(-c3n[nH]c([C@H]4CCCCN4C(=O)COc4ccccc4)n3)c2)C(=O)N1
15 | 70.4 | 2.04 | 252 | 2.71 | – | Cc1cc(C)cc(S(=O)(=O)N2CCOc3ccc(C(=O)Nc4ccc(C(=O)O)c(F)c4)cc32)c1
16 | 172 | 16.8 | – | 7.62 | > 100 | COC(=O)c1cccc(-c2csc([C@H]3CCCCN3C(=O)COc3ccccc3)n2)n1
17 | 154 | 0.686 | – | > 100 | 42.8 | O=C1Cc2cc(-c3csc([C@H]4CCCCN4C(=O)COc4ccccc4)n3)ccc2N1
18 | 227 | > 100 | – | 34.5 | > 100 | O=C(COc1ccccc1)N1CCCC[C@@H]1c1nc(-c2ccc(O)cc2)cs1
19 | 224 | 56 | – | > 100 | > 100 | O=C(COc1ccccc1)N1CCCC[C@@H]1c1nc(-c2ccc3c(c2)OCO3)cs1
20 | 2000 | 49.8 | – | > 100 | > 100 | O=C(COc1ccccc1)N1CCCC[C@@H]1c1csc(-c2ccc(C(F)(F)F)cn2)n1
21 | 589 | 32.7 | – | 59.8 | 88.9 | O=C(COc1ccccc1)N1CCCC[C@@H]1c1csc(-c2cnccn2)n1
22 | 2900 | > 100 | – | > 100 | > 100 | O=C(COc1ccccc1)N1CCCC[C@@H]1c1csc(Cc2ccc(Cl)cc2)n1
23 | 219 | > 100 | – | > 100 | 79.6 | O=C(COc1ccccc1)N1CCCC[C@@H]1c1csc(-c2ccncc2)n1
24 | 440 | > 100 | – | > 100 | > 100 | O=C(COc1ccccc1)N1CCCC[C@@H]1c1csc(-c2ccc(F)cc2)n1
25 | – | 0.782 | 530 | 29 | 2.12 | COc1ccc(Cl)cc1S(=O)(=O)N1COc2c(OC)cc(C(=O)Nc3ccc(C(=O)O)cc3)cc21
